From US11903961B2, “Hemostatic agent and method of production thereof” (AMRITA VISHWA VIDYAPEETHAM, priority 2020, dated 2024)

Test system: PPP (coagulation cascade)
Experiment: PT, aPTT and TT studies on PPP (coagulation analyzer)
Format: biochemical
Settings: rat PPP incubated 2 min with sample
Experimental: To confirm the role of third agent (Ca) (130) in the hemostatic composition, PT, a PTT and TT studies were performed using ST art 4, Diagnostica Stago, France. PPP was separated from anti-coagulated rat whole blood by centrifugation. PPP was incubated with the developed hemostatic composition for 2 min. For PT study, PPP from incubated sample was added to PT reagent in a cuvette placed in test area of coagulation analyzer and the time taken for PPP to clot was noted as PT. For a PTT study, PPP from incubated sample was further incubated with a PTT reagent after with cuvette was placed in test area and STA®-CaCl2 0.025M solution was added. Time taken for PPP to clot was noted as a PTT. For TT study, PPP from incubated sample was added to TT reagent in a cuvette placed in test area and the time taken for PPP to clot was noted as TT.

[Ca+2].[Cl-].[Cl-] [third agent, calcium chloride]
shorter: PT | TT | aPTT
